Data reported in patent US20250154134A1, “COMPOUND AS FAK INHIBITOR AND USE THEREOF” (WIGEN BIOMEDICINE TECHNOLOGY (SHANGHAI) CO., LTD., priority 2022, published 2025).

Columns and labels:
FAK recombinant protein = FAK recombinant protein (Homo sapiens (Human), UniProt Q05397); assay: Inhibitory activity against FAK enzyme (HTRF, TK substrate); format: biochemical
Method: A compound serially diluted with DMSO was mixed with a FAK recombinant protein. After the mixture was left to stand at room temperature for 10 min, a biotin-labeled TK substrate (TK) and ATP were added. […] The inhibition percentage and IC50 of the compound were calculated compared to the DMSO control group.

PC3 cells [1] = assay: PC3 cell proliferation, 2D activity assay (Cell Titer-Lumi, 72 h); format: cell-based, human
Method: (§1) 2D activity assay: 1200 PC3 cells were seeded in a 96-well plate. After overnight adherence culture, A compound serially diluted was added. […] The growth of the cells was evaluated, and the IC50 of the compound inhibiting cell growth was calculated. 3D activity assay: PC3 cells were seeded in a 96-well plate at 1200 cells/well, and 3D culture was performed. 14 days after a compound serially diluted was added, the growth of the cells was measured. The inhibition percentage and IC50 of the compound were calculated compared to the DMSO control group.

PC3 cells [2] = assay: PC3 cell proliferation, 3D activity assay (3D culture, 14 days); format: cell-based, human; conditions: read-out: 3D inhibitory activity against PC3 cells IC50
Method: as §1

[3] = Homo sapiens, PC-3, read-out: 2D inhibitory activity against PC3 cells IC50
[4] = read-out: 2D inhibitory activity against PC3 cells IC50

Sequence of FAK recombinant protein (Q05397 whole entry): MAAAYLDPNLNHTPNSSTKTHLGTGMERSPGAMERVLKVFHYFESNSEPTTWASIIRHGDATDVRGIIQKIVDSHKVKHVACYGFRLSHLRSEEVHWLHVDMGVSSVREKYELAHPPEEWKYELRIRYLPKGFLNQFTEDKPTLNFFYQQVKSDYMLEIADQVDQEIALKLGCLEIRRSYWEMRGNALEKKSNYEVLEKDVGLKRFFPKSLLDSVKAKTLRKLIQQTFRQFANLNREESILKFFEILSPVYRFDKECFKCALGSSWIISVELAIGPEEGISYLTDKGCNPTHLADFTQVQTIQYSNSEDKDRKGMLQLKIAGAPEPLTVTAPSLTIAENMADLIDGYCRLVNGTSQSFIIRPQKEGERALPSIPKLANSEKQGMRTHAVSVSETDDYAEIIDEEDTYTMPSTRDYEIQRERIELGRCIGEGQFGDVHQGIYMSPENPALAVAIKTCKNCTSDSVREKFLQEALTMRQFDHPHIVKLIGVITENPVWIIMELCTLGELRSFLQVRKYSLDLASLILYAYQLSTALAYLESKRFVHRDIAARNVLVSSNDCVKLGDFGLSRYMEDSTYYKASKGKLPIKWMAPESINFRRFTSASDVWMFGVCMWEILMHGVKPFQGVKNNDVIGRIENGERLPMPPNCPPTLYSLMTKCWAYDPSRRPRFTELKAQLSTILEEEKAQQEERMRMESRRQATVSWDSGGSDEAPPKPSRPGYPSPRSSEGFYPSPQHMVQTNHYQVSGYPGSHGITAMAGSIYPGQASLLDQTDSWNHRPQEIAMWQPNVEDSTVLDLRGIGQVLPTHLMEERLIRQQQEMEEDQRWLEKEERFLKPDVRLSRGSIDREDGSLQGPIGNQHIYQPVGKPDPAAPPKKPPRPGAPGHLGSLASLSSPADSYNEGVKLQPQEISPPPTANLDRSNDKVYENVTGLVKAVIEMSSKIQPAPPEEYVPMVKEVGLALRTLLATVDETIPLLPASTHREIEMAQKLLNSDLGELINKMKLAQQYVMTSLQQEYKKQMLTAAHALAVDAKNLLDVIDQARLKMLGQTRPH

IC50 (FAK recombinant protein)	IC50 (PC3 cells [1]; [3])	IC50 (PC3 cells [2]; Homo sapiens, PC-3, 336 h)	IC50 (PC3 cells [1]; [4])	IC50 (PC3 cells [2])	SMILES
< 20 nM	> 2000 nM	< 5 nM			COc1cc(C(=O)NC2CCN(C)CC2)c(Cl)cc1Nc1ncc(C(F)(F)F)c(Oc2cccc3c2C(=O)N(C)C32CC2)n1 [Compound 5]
< 20 nM	> 2000 nM	< 5 nM			COc1cc(C(=O)NC2(C)CCN(C)CC2)c(F)cc1Nc1ncc(C(F)(F)F)c(Oc2cccc3c2C(=O)N(C)C32CC2)n1 [Compound 7]
< 20 nM	> 2000 nM	< 5 nM			COc1cc(C(=O)NC2CC3(CCN(C)CC3)C2)ccc1Nc1ncc(C(F)(F)F)c(Oc2cccc3c2C(=O)N(C)C32CC2)n1 [Compound 9]
< 20 nM	> 2000 nM	5 to 50 nM			COc1cc(C(=O)NC2CCC3(CC2)CN(C)C3)c(F)cc1Nc1ncc(C(F)(F)F)c(Oc2cccc3c2C(=O)N(C)C32CC2)n1 [Compound 10]
< 20 nM	> 2000 nM	< 5 nM			COc1cc(C(=O)NC2CCC23CCN(C)CC3)c(F)cc1Nc1ncc(C(F)(F)F)c(Oc2cccc3c2C(=O)N(C)C32CC2)n1 (stereo not shown) [Compound 12]
< 20 nM	> 2000 nM	< 5 nM			COc1cc(C(=O)NC2CCC23CCN(C)CC3)ccc1Nc1ncc(C(F)(F)F)c(Oc2cccc3c2C(=O)N(C)C32CC2)n1 (stereo not shown) [Compound 13]
< 20 nM	> 2000 nM	< 5 nM			COc1cc(C(=O)NC2CCC3(CC2)CCN3C)c(F)cc1Nc1ncc(C(F)(F)F)c(Oc2cccc3c2C(=O)N(C)C32CC2)n1 (stereo not shown) [Compound 14]
< 20 nM	> 2000 nM	< 5 nM			COc1cc(C(=O)NC2COC3(CCN(C)CC3)C2)c(F)cc1Nc1ncc(C(F)(F)F)c(Oc2cccc3c2C(=O)N(C)C32CC2)n1 (stereo not shown) [Compound 16]
< 20 nM	> 2000 nM	5 to 50 nM			COc1cc(C(=O)NC2CCC3(CCN(C)CC3)C2)c(F)cc1Nc1ncc(C(F)(F)F)c(Oc2cccc3c2C(=O)N(C)C32CC2)n1 (stereo not shown) [Compound 18]
< 20 nM	> 2000 nM	< 5 nM			COc1cc(C(=O)NC2CCC3(CC2)CCN(C)C3)c(F)cc1Nc1ncc(C(F)(F)F)c(Oc2cccc3c2C(=O)N(C)C32CC2)n1 (stereo not shown) [Compound 20]
< 20 nM	> 2000 nM	5 to 50 nM			COc1cc(C(=O)NC2CCC3(CC2)CCN(C)CC3)c(F)cc1Nc1ncc(C(F)(F)F)c(Oc2cccc3c2C(=O)N(C)C32CC2)n1 [Compound 22]
< 20 nM	> 2000 nM	5 to 50 nM			COc1cc(C(=O)NC2CCC3(CCN(C)C3)C2)c(F)cc1Nc1ncc(C(F)(F)F)c(Oc2cccc3c2C(=O)N(C)C32CC2)n1 (stereo not shown) [Compound 24]
< 20 nM	> 2000 nM	< 5 nM			COc1cc(C(=O)NC2COC3(CCN(C)C3)C2)c(F)cc1Nc1ncc(C(F)(F)F)c(Oc2cccc3c2C(=O)N(C)C32CC2)n1 (stereo not shown) [Compound 26]
	> 2000 nM	5 to 50 nM			COc1cc(C(=O)NC2(C)CCN(C)CC2)ccc1Nc1ncc(Cl)c(Oc2cccc3c2C(=O)N(C)C32CC2)n1 [Compound 118]

Further lines, the compound ahead of its results:

SMILES	IC50 (FAK recombinant protein)	IC50 (PC3 cells [1]; [3])	IC50 (PC3 cells [2]; Homo sapiens, PC-3, 336 h)	IC50 (PC3 cells [1]; [4])	IC50 (PC3 cells [2])
CNC(=O)c1ccc(Nc2ncc(C(F)(F)F)c(Oc3cccc4c3C(=O)N(C)C43CC3)n2)c(OC)c1 [Compound 2]	< 20 nM	> 2000 nM	5 to 50 nM		
COc1cc(C(=O)NC2CCC3(CC2)CN(C)C3)ccc1Nc1ncc(C(F)(F)F)c(Oc2cccc3c2C(=O)N(C)C32CC2)n1 [Compound 11]	< 20 nM	> 2000 nM	5 to 50 nM		
COc1cc(C(=O)NC2CCC3(CC2)CCN3C)ccc1Nc1ncc(C(F)(F)F)c(Oc2cccc3c2C(=O)N(C)C32CC2)n1 (stereo not shown) [Compound 15]	< 20 nM	> 2000 nM	< 5 nM		
COc1cc(C(=O)NC2COC3(CCN(C)CC3)C2)ccc1Nc1ncc(C(F)(F)F)c(Oc2cccc3c2C(=O)N(C)C32CC2)n1 (stereo not shown) [Compound 17]	< 20 nM	> 2000 nM	< 5 nM		
COc1cc(C(=O)NC2CCC3(CCN(C)CC3)C2)ccc1Nc1ncc(C(F)(F)F)c(Oc2cccc3c2C(=O)N(C)C32CC2)n1 (stereo not shown) [Compound 19]	< 20 nM	> 2000 nM	5 to 50 nM		
COc1cc(C(=O)NC2CCC3(CC2)CCN(C)C3)ccc1Nc1ncc(C(F)(F)F)c(Oc2cccc3c2C(=O)N(C)C32CC2)n1 (stereo not shown) [Compound 21]	< 20 nM	> 2000 nM	< 5 nM		
COc1cc(C(=O)NC2CCC3(CC2)CCN(C)CC3)ccc1Nc1ncc(C(F)(F)F)c(Oc2cccc3c2C(=O)N(C)C32CC2)n1 [Compound 23]	< 20 nM	> 2000 nM	5 to 50 nM		
COc1cc(C(=O)NC2CCC3(CCN(C)C3)C2)ccc1Nc1ncc(C(F)(F)F)c(Oc2cccc3c2C(=O)N(C)C32CC2)n1 (stereo not shown) [Compound 25]	< 20 nM	> 2000 nM	< 5 nM		
COc1cc(C(=O)NC2CCN3CCN(C)C3C2)ccc1Nc1ncc(C(F)(F)F)c(Oc2cccc3c2C(=O)N(C)C32CC2)n1 (stereo not shown) [Compound 28]	< 20 nM	> 2000 nM	5 to 50 nM		
COc1cc(C(=O)NC2CCN3CCOC3C2)ccc1Nc1ncc(C(F)(F)F)c(Oc2cccc3c2C(=O)N(C)C32CC2)n1 (stereo not shown) [Compound 29]	< 20 nM	> 2000 nM	< 5 nM		
COc1cc(C(=O)NC2CCN3CCN=C3C2)ccc1Nc1ncc(C(F)(F)F)c(Oc2cccc3c2C(=O)N(C)C32CC2)n1 (stereo not shown) [Compound 30]	< 20 nM	> 2000 nM	5 to 50 nM		
COc1cc(C(=O)NC2CCn3ccnc3C2)ccc1Nc1ncc(C(F)(F)F)c(Oc2cccc3c2C(=O)N(C)C32CC2)n1 (stereo not shown) [Compound 31]	< 20 nM	> 2000 nM	5 to 50 nM		
COc1cc(C(=O)NC2CCn3cnnc3C2)ccc1Nc1ncc(C(F)(F)F)c(Oc2cccc3c2C(=O)N(C)C32CC2)n1 (stereo not shown) [Compound 32]	< 20 nM	> 2000 nM	5 to 50 nM		
COc1cc(C(=O)NC2CCN(C)CC2F)ccc1Nc1ncc(C(F)(F)F)c(Oc2cccc3c2C(=O)N(C)C32CC2)n1 (stereo not shown) [Compound 33]	< 20 nM	> 2000 nM	< 5 nM		
COc1cc(C(=O)NC2CCN(C)CC2OC)ccc1Nc1ncc(C(F)(F)F)c(Oc2cccc3c2C(=O)N(C)C32CC2)n1 (stereo not shown) [Compound 34]	< 20 nM	> 2000 nM	< 5 nM		
COc1cc(C(=O)NC2CCNCC2)ccc1Nc1ncc(C(F)(F)F)c(Oc2cccc3c2C(=O)N(C)C32CC2)n1 [Compound 35, 3-Methoxy-4-((4-((2′-methyl-3′-oxospiro[cyclopropane-1,1′-isoindolin]-4′-yl)oxy)-5-(trifluoromethyl)pyrimidin-2-yl)amino)-N-(piperidin-4-yl)benzamide]		> 2000 nM	< 5 nM		
CCN1CCC(NC(=O)c2ccc(Nc3ncc(C(F)(F)F)c(Oc4cccc5c4C(=O)N(C)C54CC4)n3)c(OC)c2)CC1 [Compound 37]	< 20 nM	> 2000 nM	< 5 nM		
COc1cc(C(=O)N2CCC3(CCN(C)C3)C2)ccc1Nc1ncc(C(F)(F)F)c(Oc2cccc3c2C(=O)N(C)C32CC2)n1 (stereo not shown) [Compound 58]				> 2000 nM	5 to 50 nM
COc1cc(N2CC3CCN(C)C3C2)ccc1Nc1ncc(Cl)c(Oc2cccc3c2C(=O)N(C)C32CC2)n1 (stereo not shown) [Compound 171]				> 2000 nM	5 to 50 nM
COc1cc(C(=O)NC2CCN(C)CC2)c(F)cc1Nc1ncc(Cl)c(Oc2cccc3c2C(=O)N(C)C32CCCC2)n1 [Compound 209]		> 2000 nM	> 50 nM		
